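Compound exposure: 48 hours, 5 concentrations, 96-well plates. GI50 marks 50% less growth.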 Activity calls are given as the source filed them. No stated cut-off is given here; in the data, active = GI50 up to about 1.1 µM and inactive = higher.

Six molecules from ChEMBL document CHEMBL1201862, “PubChem BioAssay data set” (2004) can be followed below.

Some test systems named below: HOP-62; MOLT-4; NCI-H522; SF-295; UACC-257; HOP-92; SR; OVCAR-3; MDA-N; SW-620; HL-60; OVCAR-8; MCF7; SK-MEL-28; EKVX; RPMI-8226; HCT-15; SN12C; HT-29; CCRF-CEM.
Common to all, as to assay: NCI-60 cell line screen, 48 h

On to `Cc1sc2nc3n(c(=O)c2c1C)N=C(c1ccc(Cl)cc1)CS3`, for which the GI50 is 66.1 µM (inactive) in the test with HOP-62; > 100 µM (inactive) with MOLT-4; > 100 µM (inactive) with NCI-H522; > 100 µM (inactive) in the test with SF-295; > 100 µM (inactive) in the test with UACC-257; > 100 µM (inactive) in the test on HOP-92. In addition, the GI50 in the test with SR, in the test on OVCAR-3, in the test on MDA-N, in the test with SW-620, with HL-60 and in the test on OVCAR-8 was > 100 µM (inactive) in each case. The GI50 was > 100 µM (inactive) in the test on MCF7; > 100 µM (inactive) in the test with SK-MEL-28; > 100 µM (inactive) in the test with EKVX; > 100 µM (inactive) in the test with RPMI-8226; greater than 100 µM with HCT-15; > 100 µM (inactive) in the test with SN12C. For the same molecule, the GI50 in the test with HT-29 and in the test on CCRF-CEM was > 100 µM (inactive) throughout.
On to `COCCOC1=CC(=O)c2c(O)ccc(O)c2C1=O`, for which the GI50 with HOP-62 was 0.724 µM (active); in the test on MOLT-4, 2.43 µM (inactive); in the test with NCI-H522, 2.29 µM (inactive); in the test on SF-295, 1.69 µM (inactive); in the test on UACC-257, 0.203 µM (active); with HOP-92, 2.13 µM (inactive). Moreover, the GI50 with SR was 5.01 µM (inactive); in the test on OVCAR-3, 0.662 µM (active); in the test on MDA-N, 0.186 µM (active); with SW-620 it was 0.569 µM (active); in the test with HL-60 it was 0.52 µM (active); in the test on OVCAR-8 it was 1.73 µM (inactive). In addition, the GI50 in the test with MCF7 is 0.275 µM (active); in the test with SK-MEL-28, 1.52 µM (inactive); with EKVX, 2.14 µM (inactive); with RPMI-8226, 4.28 µM (inactive); in the test on HCT-15 it was 1.02 µM; with SN12C, 1.63 µM (inactive). Further, the results for the GI50 in the test on HT-29 and in the test with CCRF-CEM were 0.585 µM (active) and 4.3 µM (inactive), respectively.
For the molecule `O=C1CSC(c2ccc([N+](=O)[O-])cc2)N1c1ccc(-c2ccc(-n3c(-c4ccccc4)nc4ccccc4c3=O)cc2)cc1` (stereo not given), the GI50 was > 100 µM (inactive) in the test with HOP-62; 20.4 µM (inactive) in the test with MOLT-4; > 100 µM (inactive) with NCI-H522; 85.3 µM (inactive) in the test on SF-295; > 100 µM (inactive) in the test with UACC-257; 41.7 µM (inactive) with HOP-92. Also, the GI50 in the test on SR is 18.7 µM (inactive); in the test with OVCAR-3, 53.1 µM (inactive); with MDA-N, 75 µM (inactive); in the test on SW-620, > 100 µM (inactive); in the test with HL-60 it was 26.5 µM (inactive); in the test on OVCAR-8, 46.9 µM (inactive). Also, the GI50 was 33.1 µM (inactive) with MCF7; 81.3 µM (inactive) with SK-MEL-28; 38.5 µM (inactive) with EKVX; 32.5 µM (inactive) in the test on RPMI-8226; 33.7 µM in the test on HCT-15; > 100 µM (inactive) with SN12C. The values for the GI50 with HT-29 and with CCRF-CEM were 49.7 µM (inactive) and 25.7 µM (inactive), respectively.
`COc1ccc(-c2c(CN3CCOCC3)sc3nc4ccccc4n23)cc1`: the GI50 with HOP-62 is 31 µM (inactive); in the test on MOLT-4 it was 10.3 µM (inactive); in the test on NCI-H522 it was 2.58 µM (inactive); in the test with SF-295, 9.08 µM (inactive); in the test with UACC-257, > 72.1 µM (inactive); with HOP-92, 23.1 µM (inactive). Further, the GI50 in the test with SR was 3.39 µM (inactive); in the test with OVCAR-3, 9.86 µM (inactive); in the test with MDA-N, 2.06 µM (inactive); in the test with SW-620, 12.2 µM (inactive); in the test on HL-60, 9.42 µM (inactive); in the test with OVCAR-8, 26.5 µM (inactive). In addition, the GI50 with MCF7 was 8.32 µM (inactive); in the test with SK-MEL-28, 18.6 µM (inactive); in the test with EKVX, 15.2 µM (inactive); with RPMI-8226, 5.51 µM (inactive); in the test on HCT-15, 5.58 µM; in the test with SN12C, 33.4 µM (inactive). The results for the GI50 with HT-29 and in the test on CCRF-CEM were 8.41 µM (inactive) and 0.0435 µM (active), respectively.
On to `CC1=CC(=O)CC(C)(C)C1(O)/C=C/C(C)=C/C(=O)O` (stereo not given), for which the GI50 in the test with HOP-62, in the test with MOLT-4, in the test with NCI-H522, in the test with SF-295, with UACC-257 and in the test with HOP-92 was > 100 µM (inactive) throughout. The GI50 in the test with SR, in the test on OVCAR-3, with MDA-N, in the test on SW-620, in the test on HL-60 and with OVCAR-8 was > 100 µM (inactive) in each case. The GI50 in the test on MCF7 was > 100 µM (inactive); in the test with SK-MEL-28, > 100 µM (inactive); in the test on EKVX, > 100 µM (inactive); in the test on RPMI-8226, > 100 µM (inactive); in the test with HCT-15, greater than 100 µM; with SN12C, > 100 µM (inactive). The GI50 with HT-29 and in the test on CCRF-CEM was > 100 µM (inactive) in each case.
Turning to `c1cc2nnc1SCCSCCSc1ccc(nn1)SCCSCCS2`, the GI50 with HOP-62 was 31 µM (inactive); with MOLT-4, > 100 µM (inactive); in the test on NCI-H522, > 100 µM (inactive); in the test on SF-295 it was > 100 µM (inactive); in the test with UACC-257, > 100 µM (inactive); in the test on HOP-92, > 100 µM (inactive). The GI50 with SR, with OVCAR-3, with MDA-N, with SW-620, with HL-60 and in the test with OVCAR-8 was > 100 µM (inactive) throughout. Moreover, the GI50 was > 100 µM (inactive) in the test on MCF7; > 100 µM (inactive) in the test with SK-MEL-28; > 100 µM (inactive) with EKVX; > 100 µM (inactive) with RPMI-8226; greater than 100 µM in the test on HCT-15; > 100 µM (inactive) with SN12C. The GI50 in the test with HT-29 and with CCRF-CEM was > 100 µM (inactive) in each case.
